# Patent US10682319B2, “Necrosis inhibitors” (National Institute of Biological Sciences, Beijing, priority 2014, dated 2020)
# Like-named read-outs stand apart in the source and are kept apart here.
# Legend:
# [1] = system: HT-29 cells; assay: Necrosis assay (TNF-α/Smac mimetic/z-VAD induced necrosis, cell viability by ATP level); type: cell-based
# In short: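 Necrosis induced by 20 ng/ml TNF-α, 100 nM Smac mimetic and […], with compound added concurrently for 24 h. Viability read as ATP luminescence (CellTiter-Glo), normalized to DMSO-treated cells; duplicates.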
# [2] = molecular target: T1, Recombinant full-length RIPK1 protein with N-terminal GST-tag (hRIP1 kinase) (Homo sapiens, UniProt Q13546); assay: Kinase assay of RIPK1 (ADP-Glo); type: biochemical; conditions: for IC50: RIPK1 161 nM, ATP 50 uM, MBP 20 uM, 90 min
# T1 construct: Recombinant full-length RIPK1 protein with N-terminal GST-tag; GST (N); purchased SignalChem R07-34G
# T1 sequence (Q13546 1-671): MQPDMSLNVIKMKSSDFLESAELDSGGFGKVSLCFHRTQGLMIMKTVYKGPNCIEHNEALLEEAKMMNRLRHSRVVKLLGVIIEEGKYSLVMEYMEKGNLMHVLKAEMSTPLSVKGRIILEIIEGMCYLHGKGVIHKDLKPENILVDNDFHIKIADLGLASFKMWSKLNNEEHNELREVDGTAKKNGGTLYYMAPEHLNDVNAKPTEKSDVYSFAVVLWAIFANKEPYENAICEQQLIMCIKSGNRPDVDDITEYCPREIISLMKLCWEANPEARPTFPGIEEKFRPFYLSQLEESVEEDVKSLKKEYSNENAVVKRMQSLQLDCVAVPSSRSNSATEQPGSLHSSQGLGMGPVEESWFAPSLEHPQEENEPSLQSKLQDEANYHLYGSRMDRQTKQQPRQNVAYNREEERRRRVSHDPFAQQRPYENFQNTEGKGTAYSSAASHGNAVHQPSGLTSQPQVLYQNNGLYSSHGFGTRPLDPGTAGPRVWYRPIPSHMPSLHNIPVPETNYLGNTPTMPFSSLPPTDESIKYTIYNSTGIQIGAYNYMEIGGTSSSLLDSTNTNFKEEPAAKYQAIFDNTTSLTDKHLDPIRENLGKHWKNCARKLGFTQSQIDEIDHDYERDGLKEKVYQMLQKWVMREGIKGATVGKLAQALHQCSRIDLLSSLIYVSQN
# Experimental: Recombinant full-length RIPK1 protein with N-terminal GST-tag (Cat # R07-34G) was purchased from SignalChem. The ADP-Glo™ kinase assay kit (Cat # V9102) was from Promega. MBP (cat # M2295) protein and all the other chemicals were from Sigma. The 384-well assay plates (Cat #3674, white, opaque) were purchased from Corning.
# Kinase activity assay and data analysis: The RIPK1 kinase assay was performed in white 384-well plate. The assay buffer contained 25 mM HEPES (pH7.2), 20 mM MgCl2, 12.5 mM MnCl2, 5 mM EGTA, 2 mM EDTA, 12.5 mM β-glycerol phosphate and 2 mM DTT. RIPK1 was first incubated with compounds or DMSO control for 15 min, then ATP/MBP substrate mixture was added to initiate the reaction. The final concentration of RIPK1 was 161 nM, while the final concentration of ATP was 50 uM, and MBP 20 uM. After 90 min reaction at room temperature, the ADP-Glo reagent and detection solution were added following the technical manual of ADP-Glo™ kinase assay kit (Promega). The luminescence was measured on PerkinElmer Enspire. The data was analyzed using Graphpad Prism (GraphPad Software; www.graphpad.com). The curves were fitted using a non-linear regression model with a sigmoidal dose response.
# [3] = HT-29, TNF-α + Smac mimetic + z-VAD, 24 hrs, ATP level, values given as ranges in nM, read-out: EC50 (inhibition of necrosis in HT-29 cells)
# [4] = Homo sapiens, HT-29, cell necrosis assay, exemplary data table, read-out: Cell viability assay, EC50
# [5] = Homo sapiens, HT-29, 24 h, HT-29, TNF-α + Smac mimetic + z-VAD, 24 hrs, ATP level, values given as ranges in uM, read-out: EC50 (inhibition of necrosis in HT-29 cells)
Structure (SMILES),"EC50 [1, 3] [nM]","EC50 [1, 4] [nM]",IC50 [2] [nM],"EC50 [1, 5] [nM]",inhibition at 2 µM ([2]; at 2uM compound) [%]
"CCC(C)(C)C(=O)N(O)Cc1ccccc1 [Compound 92, N-benzyl-N-hydroxy-2,2-dimethylbutanamide]",1 to 1000,28.4,13.2,,
"CCC(C)(C)C(=O)N(C)Cc1ccccc1Cl [Compound 14, N-(2-chlorobenzyl)-N,2,2-trimethylbutanamide]",,3280,,1000 to 10000,66
"CCC(C)(C)C(=O)N(O)Cc1cc(F)c(F)c(F)c1 [Compound 99, N-hydroxy-2,2-dimethyl-N-(3,4,5-trifluorobenzyl)butanamide]",1 to 1000,45.7,29.6,,
"CCC(C)(C)C(=O)N(C)Cc1cccc(F)c1 [Compound 16, N-(3-fluorobenzyl)-N,2,2-trimethylbutanamide]",1 to 1000,,52,,
"CCC(C)(C)C(=O)N(C)Cc1cc(F)cc(F)c1F [Compound 75, N,2,2-trimethyl-N-(2,3,5-trifluorobenzyl)butanamide]",1 to 1000,,33,,
"CCC(C)(C)C(=O)N(C)Cc1cccc(C)c1C [Compound 31, N-(2,3-dimethylbenzyl)-N,2,2-trimethylbutanamide]",,,,1000 to 100000,
"CCC(C)(C)C(=O)N[C@@H](CC(=O)NC1CCCCC1)c1ccccc1 [Compound 104, (S)—N-(3-(cyclohexylamino)-3-oxo-1-phenylpropyl)-2,2-dimethylbutanamide]",,,,1000 to 100000,
"CN(Cc1cc(F)cc(F)c1F)C(=O)C1(C(F)(F)F)CCC1 [Compound 84, N-methyl-N-(2,3,5-trifluorobenzyl)-1-(trifluoromethyl)cyclobutanecarboxamide]",1 to 1000,,,,
"CCC(C)(C)C(=O)N[C@@H](CC(=O)N1CCCCC1)c1ccccc1 [Compound 105, (S)-2,2-dimethyl-N-(3-oxo-1-phenyl-3-(piperidin-1-yl)propyl)butanamide]",,,,1000 to 100000,
"CN(Cc1ccccc1F)C(=O)CC(C)(C)C [Compound 59, N-(2-fluorobenzyl)-N,3,3-trimethylbutanamide]",,,,1000 to 10000,
